Measurements: PMC7478165, “Derivatisation of parthenolide to address chemoresistant chronic lymphocytic leukaemia” (MedChemComm, 2019)

Tests used:
[1] = Hepatocyte stability assay (mouse); assay type: in vitro ADME; details: mouse hepatocytes; for half-life: read-out: Hepatocyte stability (mouse) T1/2
[2] = tested on: MEC1 CLL cell line; experiment: alamarBlue assay, in vitro antileukaemic activity against MEC1 CLL cell line; assay type: cell-based; details: for LipE pEC50–clog P: MEC1 cell line pEC50 minus calculated log P
Description: Defective p53-signalling increases genomic instability and drives tumour progression. A high frequency of p53 inactivation is found in relapsed, treatment-resistant, high risk CLL.[30] […] Owing to resource availability a subset of up to ten of these compounds was prioritised for further investigation. Compounds 2d, 2e, 2j, 2aa, 5a, 5d, 5e, 5f, 5ab and 6b were selected on the basis of reasons including ease of synthetic access, diversity across the chemical space probed and novelty. Those prepared under conditions (i)Scheme 1 (2d, 5a and 6b) were available on a scale and in a purity to directly permit follow-up studies, whereas compounds prepared under conditions (ii)Scheme 1 were prepared on a small scale so were resynthesised. These seven compounds (2e, 2j, 2aa, 5d, 5e, 5f and 5ab) were isolated on >30 mg scale in high purity and progressed to more following studies.
Following the identification of 5f as the most promising drug-like derivative of PTL from the aforementioned parallel/high-throughput screening, the anti-leukaemic activity of 5f was tested once more and compared directly with that of PTL (1) and DMAPT (2a), which serve as comparators and positive controls.
Amine 7 was successfully prepared as follows: 4-Piperidinecarboxylic acid was N-Boc protected to deliver 8 in 92% yield.[43] In order to confidently assign the NMR spectra of compound 8 J-MOD, HSQC and ^1H–^1H COSY were helpful, particularly in establishing that a broad resonance in the proton-decoupled ^13C NMR spectrum, centred on 42.8 ppm, corresponds to the ring-carbons bonded to nitrogen. The carboxylic acid of 8 was converted to the corresponding ethyl-3-keto-propanoate 9 in 24% yield. Conversion of 9 to the N-Boc protected congener 10, was achieved by treatment with acetamidine hydrochloride and potassium carbonate, furnishing 10 in 77% yield. Treatment with trifluoroacetic acid delivered desired compound 7 in 99% yield for the Boc-deprotection step (scale 200 mg, 17% over four linear steps). Thus, evidencing accessibility of amine 7 and with it in hand, it was timely to probe any activity arising from the amine alone. MEC1 sensitivity to 1, 5f and 7 was compared in parallel using the alamarBlue® assay (Fig. 6). […] A pre-peer-reviewed preprint of this article was deposited and may be viewed elsewhere.[44]

[3] = Stability in aqueous solution, pH 7.4; assay type: physicochemical; details: for half-life: pH 7.4, read-out: Stability pH 7.4 T1/2; for stability in aqueous solution: result in words
Procedure: Compounds 2d, 2e, 2f, 2g, 2j, 2aa, 5a, 5d, 5e, 5f, 5ab and 6b were subjected to in vitro DMPK testing. […] The other three (2d, 2j and 2aa) were not retained for further investigation due to poor stability (T1/2 at pH 7.4: 13, 107 and 76 min, Table 1, entries 1, 3 and 4 respectively). One obvious aspect contributing to observed stability is the propensity for PTL derivatives of this type to undergo a retro-amination (reverse-Michael-type mechanism), indeed this reverse reaction is often claimed as a pro-drug mode of action.[29a],[33] […] It is a reasonable assertion that activity observed for these unstable compounds could well be ascribed to free PTL generated rapidly in the assay.

[4] = Microsomal stability assay (mouse); details: for Mouse microsomal stability: mouse microsomes; for microsomal CLint: mouse, liver microsomes
[5] = Caco-2 permeability assay; assay type: in vitro ADME; details: for efflux ratio / Papp A→B / Papp B→A: human; for efflux ratio: Caco-2, pH 7.4; for Papp A→B / Papp B→A: Caco-2; for Papp A→B: pH 7.4, A to B; for Papp B→A: pH 7.4, B to A
[6] = Murine oral (PO) PK study; assay type: in vivo; details: for Cmax / Tmax / bioavailability / half-life: in vivo, mouse; for bioavailability: read-out: Mouse PK (PO) F%; for half-life: PO 10 mg kg^–1, as worded in text
Procedure: The in vivo oral bioavailability of compounds 5a and 5f was compared in a murine PK study at 10 mg kg^–1 (Fig. 4(a)ii and (b)ii and Table 2). In keeping with the intravenous findings, the murine PO half-life of 5f was twice as long as 5a (1.0 versus 0.5 hours, Table 2) and the Cmax attained by 5f was approximately 40% higher than that achieved by 5a (404 versus 283 ng mL^–1). […] Compound 5f was therefore identified as a promising potential new agent with desirable pharmacological properties towards a therapy for drug-resistant CLL.

[7] = Murine intravenous PK study; assay type: in vivo; details: IV 1 mg kg^–1; for clearance / half-life / Vd: blood, mouse; for clearance: read-out: Mouse PK (IV) Cl; for half-life: read-out: Mouse PK (IV) T1/2 (converted); for Vd: read-out: Mouse PK (IV) VSS
Procedure: In order to determine 5a and 5f are suitable for use as pharmaceutical agents their pharmacokinetic (PK) parameters were next probed. A murine intravenous PK study of compounds 5a and 5f at 1.0 mg kg^–1 was conducted and their concentrations in blood were measured with time (Fig. 4(a)i and (b)i and Table 2).

[8] = target: hERG K+ channel (Homo sapiens, UniProt Q12809); experiment: hERG liability assay, IonWorks patch clamp electrophysiology; assay type: cell-based; details: for IC50: eight-point curves, maximum test concentration 100 μM; for inhibition at 100 µM: read-out: hERG inhibition at top test concentration
Procedure: Early toxicological screening is an important step in derisking drug discovery programmes and is increasingly accessible.[39]
Three PTL derivatives (2a, 5a and 5f) were tested for inhibition of the hERG K^+ channel (against cisapride as a positive control) using IonWorks patch clamp electrophysiology. […] Eight-point concentration-response curves were generated using three-fold serial dilutions from a maximum final test concentration of 100 μM, results are summarised in Fig. S6. ^†

[9] = in vitro; details: mouse, microsomes
[10] = tested on: MEC1 CLL cell line; experiment: cells; parameters: alamarBlue (resazurin reduction) cytotoxicity assay in MEC1 CLL cells, n = 5; details: Homo sapiens, read-out: alamarBlue EC50 (uM) average n=5
Procedure: Comparison of the activity of 5f with 1 (PTL) and 2a (DMAPT) Biological efforts at University of Birmingham Tissue culture, MEC1 cells were obtained from the American Type Culture Collection (Manassas, VA 20110 USA) and were cultured in RPMI 1640 medium (Sigma-Aldrich, Irvine, UK) with 10% fetal bovine serum (Sigma-Aldrich). The alamarBlue® cytotoxicity assay was conducted by seeding MEC1 cells in triplicate at density of 25000 cells/well in a 96 well plate, final volume of 200 μL. Following treatment with test compound, viability was determined by measuring the reduction of resazurin. Resazurin solution was added to each well at a final concentration of 50 μg/mL and incubated for 3 hours at 37 °C with 5% CO2. Reduction of resazurin was determined by measuring […] at 590 nm using a PheraSTAR FS plate reader (BMG Labtech). Cell viability was calculated as a fraction of the untreated cells after subtracting background fluorescence of resazurin in media only. Data is presented as the mean of five independent experiments and significance was determined by Student’s t-test.

[11] = Homo sapiens, MEC1, MEC1 cell line, alamarBlue assay, library screen, read-out: EC50 ave.
[12] = first of two columns headed A to B
[13] = second of two columns headed A to B
[14] = MEC1 cell line, alamarBlue assay, library screen, read-out: EC50 ave.
[15] = Homo sapiens, MEC1, MEC1 cell line, read-out: pEC50 (converted)
[16] = Homo sapiens, MEC1, MEC1 cells, alamarBlue, direct comparison of 5f with PTL and DMAPT, n = 5, read-out: EC50

Sequence of hERG K+ channel (Q12809 whole entry): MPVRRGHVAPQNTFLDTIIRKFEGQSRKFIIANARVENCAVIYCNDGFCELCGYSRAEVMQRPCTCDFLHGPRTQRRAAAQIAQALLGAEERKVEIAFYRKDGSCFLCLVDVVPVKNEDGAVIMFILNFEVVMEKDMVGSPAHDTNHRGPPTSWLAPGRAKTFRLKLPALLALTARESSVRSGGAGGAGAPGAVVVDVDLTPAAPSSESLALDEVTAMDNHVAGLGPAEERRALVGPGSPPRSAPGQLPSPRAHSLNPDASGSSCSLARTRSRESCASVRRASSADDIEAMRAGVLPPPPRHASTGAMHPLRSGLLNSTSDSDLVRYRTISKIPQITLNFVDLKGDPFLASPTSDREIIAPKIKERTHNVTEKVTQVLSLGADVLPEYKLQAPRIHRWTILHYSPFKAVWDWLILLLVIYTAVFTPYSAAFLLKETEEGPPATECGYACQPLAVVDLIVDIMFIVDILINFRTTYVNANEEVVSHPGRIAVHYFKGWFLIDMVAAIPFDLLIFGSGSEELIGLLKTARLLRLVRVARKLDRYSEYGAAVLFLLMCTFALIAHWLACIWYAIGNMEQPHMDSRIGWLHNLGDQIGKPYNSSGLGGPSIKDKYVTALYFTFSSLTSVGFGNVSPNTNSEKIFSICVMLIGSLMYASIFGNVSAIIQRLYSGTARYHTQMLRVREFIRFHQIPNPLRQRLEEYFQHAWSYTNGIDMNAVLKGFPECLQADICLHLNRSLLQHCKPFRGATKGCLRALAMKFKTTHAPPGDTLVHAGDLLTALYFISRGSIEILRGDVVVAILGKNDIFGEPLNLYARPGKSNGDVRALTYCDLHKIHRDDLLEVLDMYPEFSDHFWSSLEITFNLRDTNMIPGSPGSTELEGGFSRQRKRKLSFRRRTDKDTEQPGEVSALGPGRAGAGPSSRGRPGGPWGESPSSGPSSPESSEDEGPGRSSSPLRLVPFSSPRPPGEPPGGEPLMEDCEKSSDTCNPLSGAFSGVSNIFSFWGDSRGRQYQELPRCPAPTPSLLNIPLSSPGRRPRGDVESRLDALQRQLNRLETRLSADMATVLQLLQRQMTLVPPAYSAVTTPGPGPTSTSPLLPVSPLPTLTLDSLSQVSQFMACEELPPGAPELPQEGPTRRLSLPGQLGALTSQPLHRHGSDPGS

| SMILES | Hepatocyte stability (mouse) CLint [1] | half-life [1] [h] | EC50 [2, 11] [µM] | LipE pEC50–clog P [2] | half-life [3] [h] | Mouse microsomal stability [4, 12] | Mouse microsomal stability [4, 13] | efflux ratio [5] | Papp A→B [5] [×10⁻⁶ cm/s] | Papp B→A [5] [×10⁻⁶ cm/s] | EC50 [2, 14] [µM] | Mouse PK (PO) UC (0-inf) ([6]; PO 10 mg kg^–1) [ng h mL^–1] | Cmax ([6]; PO 10 mg kg^–1) [ng/mL] | Mouse PK (IV) UC (0-inf) [7] [ng h mL^–1] | clearance [7] [mL/min/kg] | half-life [7] [h] | inhibition at 100 µM ([8]; human) [%] | further results |
| --- | --- | --- | --- | --- | --- | --- | --- | --- | --- | --- | --- | --- | --- | --- | --- | --- | --- | --- |
| C/C1=C\CC[C@@]2(C)O[C@@H]2[C@H]2OC(=O)[C@@H](CN3CCCC3)[C@@H]2CC1 [C00005] | 22.0 μL min^–1 per million cells | 1.08 | 7.7 | 2.35 | > 2 | 19 | 75 | 1 | 15.9 | 16.2 |  |  |  |  |  |  |  |  |
| C/C1=C\CC[C@@]2(C)O[C@@H]2[C@H]2OC(=O)[C@@H](CN3CCC(c4cc(O)nc(C)n4)CC3)[C@@H]2CC1 [C00008] | 22.0 μL min^–1 per million cells | 1.07 |  | 3.69 | > 2 | 18 | 77 |  | 2.7 | 2.8 | 7.7 |  |  |  |  |  |  | Caco-2 pH 7.4 Efflux ratio [5]: 1.1 |
| C/C1=C\CC[C@@]2(C)O[C@@H]2[C@H]2OC(=O)[C@@H](CN[C@@H](Cc3ccccc3)C(=O)O)[C@@H]2CC1 [C00010] | 16.0 μL min^–1 per million cells | 1.47 |  | 3.66 | > 2 | 9 | 160 |  | 1.5 | 4.2 | 13.5 |  |  |  |  |  |  | Caco-2 pH 7.4 Efflux ratio [5]: 2.7 |
| C/C1=C\CC[C@@]2(C)O[C@@H]2[C@H]2OC(=O)[C@@H](CN3CCCC3)[C@@H]2CC1 [C00011] |  |  |  |  |  |  |  |  |  |  |  | 711 | 283 | 80.5 | 207 | 0.66 |  | Tmax ([6]; PO 10 mg kg^–1): 0.5 h; bioavailability ([6]; PO 10 mg kg^–1): 95.8%; Vd [7]: 11.6 L/kg |
| C/C1=C\CC[C@@]2(C)O[C@@H]2[C@H]2OC(=O)[C@@H](CN3CCC(c4cc(O)nc(C)n4)CC3)[C@@H]2CC1 [C00012] |  |  |  |  |  |  |  |  |  |  | 7.7 | 1696 |  | 289 |  |  |  | Mouse PK (PO) Cmax ([6]; PO 10 mg kg^–1): 404 ng mL^–1; Tmax ([6]; PO 10 mg kg^–1): 1 h; bioavailability ([6]; PO 10 mg kg^–1): 58.5%; Mouse PK (IV) Cl [7]: 58 mL min^–1 kg^–1; Mouse PK (IV) T1/2 [7]: 1.14 h; Vd [7]: 4.62 L/kg |
| CC1=CCCC2(C)OC2C2OC(=O)C(CN3CCCC3)C2CC1 (stereo not shown) [Compound 5a] |  |  | < 15 | 2.35 |  |  |  | 1 |  |  | 7.7 | 711 | 283 | 80.5 | 207 | 0.66 | 45 | EC50 [2, 15]: 7.76 µM; IC50 [8]: > 100 µM; half-life [6]: 0.5 h; stability in aqueous solution [3]: greater than two hours; microsomal CLint [4]: 19 µL/min/mg |
| C/C1=C\CC[C@@]2(C)O[C@@H]2[C@H]2OC(=O)[C@@H](CN3CCC(O)(c4ccccc4)CC3)[C@@H]2CC1 [Compound 5e] |  |  |  |  |  |  |  |  |  |  | < 15 |  |  |  |  |  |  | microsomal CLint [9]: > 100 µL/min/mg |
| C/C1=C\CC[C@@]2(C)O[C@@H]2[C@H]2OC(=O)[C@@H](CN3CCC(c4cc(O)nc(C)n4)CC3)[C@@H]2CC1 [Compound 5f] |  |  | < 15 | 3.69 |  |  |  | 1.1 |  |  | 7.7 | 1696 | 404 | 289 | 58 | 1.14 | 24 | EC50 [2, 15]: 7.76 µM; EC50 ([2]; Homo sapiens, MEC1, MEC1 cells, alamarBlue, 1, 5f and 7 compared in parallel, CalcuSyn, read-out: EC50): 4.3 µM; EC50 [2, 16]: 4.5 µM; effect of NAC pre-treatment on activity ([2]; MEC1 cells, pre-treatment with N-acetylcysteine (NAC)): abrogated activity; hERG liability flag [8]: inactive; IC50 ([8]; human): > 100 µM; half-life [6]: 1 h; stability in aqueous solution [3]: greater than two hours; microsomal CLint [4]: 18 µL/min/mg |
| C/C1=C\CC[C@@]2(C)O[C@@H]2[C@H]2OC(=O)[C@@H](CN(C)C)[C@@H]2CC1 [DMAPT, dimethyl amino-PTL, reference compound] |  |  |  | 3.19 |  |  |  |  |  |  |  |  |  |  |  |  | 40 | EC50 [2, 16]: 5.6 µM; IC50 [8]: > 100 µM |
| C/C1=C\CC[C@@]2(C)O[C@@H]2[C@H]2OC(=O)[C@@H](CN(C)C)[C@@H]2CC1 [DMAPT, dimethyl amino-PTL] |  |  |  |  |  |  |  |  |  |  |  |  |  |  |  |  |  | EC50 [10]: 5.3 µM |
